The IC50 is the concentration that inhibits the measured activity by half.

What all share (assay type): biochemical
One assay concerns the target MMP-13 (Homo sapiens, UniProt P45452). Kind of assay: MMP-13 inhibition (thiopeptide or fluorescent peptide substrate). The following applies: read-out: MMP-13 IC50.
The target in assay [1] is TNF-α converting enzyme (TACE) (Homo sapiens, UniProt P78536). Kind of assay: TACE inhibition (fluorescent peptidyl substrate). The conditions noted are these: read-out: TACE IC50.
A further assay deals with T1, MMP-1 (Homo sapiens, UniProt P03956).
T1 sequence (P03956 100-469): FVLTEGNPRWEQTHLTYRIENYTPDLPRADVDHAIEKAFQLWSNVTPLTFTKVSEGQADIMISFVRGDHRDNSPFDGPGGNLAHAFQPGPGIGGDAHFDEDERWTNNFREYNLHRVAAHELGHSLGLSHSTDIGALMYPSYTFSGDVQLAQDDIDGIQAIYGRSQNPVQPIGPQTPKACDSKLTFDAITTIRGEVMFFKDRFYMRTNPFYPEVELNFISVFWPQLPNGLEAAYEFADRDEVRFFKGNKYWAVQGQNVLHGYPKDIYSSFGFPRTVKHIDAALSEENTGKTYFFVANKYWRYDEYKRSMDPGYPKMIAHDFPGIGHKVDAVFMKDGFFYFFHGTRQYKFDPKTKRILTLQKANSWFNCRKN
Nature of the assay: MMP-1 inhibition (thiopeptide or fluorescent peptide substrate). The conditions noted are these: read-out: MMP-1 IC50.

The next assay addresses MMP-9 (Homo sapiens, UniProt P14780). Nature of the assay: MMP-9 inhibition (thiopeptide or fluorescent peptide substrate). The following applies: read-out: MMP-9 IC50.

SMILES strings stand for the structures. Counter-ions that a name gives are not always drawn.

Chain of TNF-α converting enzyme (TACE) (P78536 215-824, species assumed): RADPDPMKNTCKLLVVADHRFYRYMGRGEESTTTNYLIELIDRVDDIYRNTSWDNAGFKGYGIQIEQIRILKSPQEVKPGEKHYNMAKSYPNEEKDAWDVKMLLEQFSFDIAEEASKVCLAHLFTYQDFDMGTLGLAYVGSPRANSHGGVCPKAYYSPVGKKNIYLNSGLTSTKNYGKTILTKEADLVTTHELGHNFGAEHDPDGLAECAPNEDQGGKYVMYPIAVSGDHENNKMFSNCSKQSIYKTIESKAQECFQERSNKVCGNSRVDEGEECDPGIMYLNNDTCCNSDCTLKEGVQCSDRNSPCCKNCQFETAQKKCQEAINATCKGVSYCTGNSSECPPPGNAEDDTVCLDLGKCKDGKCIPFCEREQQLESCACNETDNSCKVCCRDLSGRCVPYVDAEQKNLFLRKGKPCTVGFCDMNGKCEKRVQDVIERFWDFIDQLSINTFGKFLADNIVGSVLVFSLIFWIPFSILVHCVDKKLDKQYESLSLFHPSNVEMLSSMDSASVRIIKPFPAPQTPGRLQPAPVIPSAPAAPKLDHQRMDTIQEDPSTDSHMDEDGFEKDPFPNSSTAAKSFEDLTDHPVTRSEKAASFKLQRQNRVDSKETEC
Chain of MMP-9 (P14780 94-707): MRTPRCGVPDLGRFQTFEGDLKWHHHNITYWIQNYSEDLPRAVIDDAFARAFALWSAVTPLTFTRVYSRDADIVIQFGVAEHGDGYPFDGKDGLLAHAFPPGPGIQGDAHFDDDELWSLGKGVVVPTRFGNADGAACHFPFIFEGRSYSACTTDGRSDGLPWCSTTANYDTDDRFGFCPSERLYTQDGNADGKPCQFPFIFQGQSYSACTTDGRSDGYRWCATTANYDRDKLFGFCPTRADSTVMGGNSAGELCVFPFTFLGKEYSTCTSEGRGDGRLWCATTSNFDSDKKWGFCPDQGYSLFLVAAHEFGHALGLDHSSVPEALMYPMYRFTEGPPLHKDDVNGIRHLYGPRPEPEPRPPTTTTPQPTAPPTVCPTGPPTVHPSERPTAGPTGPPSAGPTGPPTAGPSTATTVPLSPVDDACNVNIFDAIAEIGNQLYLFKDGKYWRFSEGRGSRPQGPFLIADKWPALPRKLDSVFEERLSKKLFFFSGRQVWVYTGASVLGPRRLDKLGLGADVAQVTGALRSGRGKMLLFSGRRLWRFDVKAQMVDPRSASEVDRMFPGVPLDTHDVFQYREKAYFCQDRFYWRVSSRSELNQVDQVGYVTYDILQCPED

Consider `CC#CCOc1ccc(S(=O)(=O)N(CC#CCNC)C(C(=O)NO)C(C)C)cc1` (stereo not shown) [Example 127, 2-{{[4-(2-Butynyloxy)phenyl]sulfonyl}[4-(methylamino)-2-butynyl]amino}-N-hydroxy-3-methylbutanamide], for which the IC50 was determined as 0.037 µM on MMP-13, 0.104 µM in assay [1], 0.187 µM on MMP-1 and 0.053 µM at MMP-9.
For `CC#CCOc1ccc(S(=O)(=O)N(C)[C@@H](C(=O)NO)C2CCC(N(CC)CC)CC2)cc1` (stereo partly drawn) [Example 128, ((2R)-{[4-(2-Butynyloxy)phenyl]sulfonyl}(methyl)amino)[(4-diethylamino)cyclohexyl]-N-hydroxyethamide], the IC50 stood at 0.212 µM at MMP-13, 0.376 µM in assay [1], 2.37 µM on MMP-1 and 0.184 µM at MMP-9.
Taken in the same sequence, the figures for `CC#CCOc1ccc(S(=O)(=O)N(C)CC(=O)NO)cn1` [Example 131, 2-[(6-but-2-ynyloxy-Pyridine-3-sulfonyl)-methyl-amino]-N-hydroxy-acetamide] were 0.428 µM, 0.029 µM, about 10 µM and 0.402 µM.
With `CC#CCOc1ccc(S(=O)(=O)N(CC#CCN2CCN(C)CC2)C(C)C(=O)NO)cc1` (stereo not shown) [Example 135], the IC50 on MMP-13 is 0.066 µM; in assay [1], 0.021 µM; at MMP-1, 0.921 µM; on MMP-9 it was 0.142 µM.
As to `CC#CCOc1ccc(S(=O)(=O)N(C)C(C(=O)NO)C(C)(C)SCCN2CCOCC2)cc1` (stereo not shown) [Example 140, 2-({[4-(2-Butynyloxy)phenyl]sulfonyl)(methyl)amino]-N-hydroxy-3 Methyl-3-[(2(4-morpholinylethyl)sulfanyl]-butanamide Hydrochloride], the IC50 at MMP-13 came to 0.0092 µM; in assay [1], 0.086 µM; at MMP-1 it was 0.045 µM; on MMP-9, 0.103 µM.
Taken in the same sequence, the figures for `CC#CCOc1ccc(S(=O)(=O)N(C)C(C(=O)NO)C(C)(C)SCCn2ccnc2)cc1` (stereo not shown) [Example 144, 2-({[4-(2-Butynyloxy)phenyl]sulfonyl)(methyl)amino]-N-hydroxy-3 Methyl-3-{[2-(1H-imidazol-1-yl)ethyl]sulfanyl}butanamide] were 0.0059 µM, 0.06 µM, 0.016 µM and 0.026 µM.
As for `CC#CCOc1ccc(S(=O)(=O)N(C)C(C(=O)NO)C(C)(C)SCCC)cc1` (stereo not shown) [Example 151, 2-[(4-but-2-ynyloxy-Benenesulfonyl)-methyl-amino]-N-hydroxy-3-methyl-3-propylsulfanyl-butyramide], the IC50 at MMP-13 was determined as 0.014 µM; in assay [1] it was 0.031 µM; on MMP-1, 0.024 µM; on MMP-9 it was 0.031 µM.
As to `CC#CCOc1ccc(S(=O)(=O)NC(C(=O)NO)c2ccc(O)cc2)cc1` (stereo not shown) [Example 176, 2-({[4-(2-Butynyloxy)phenyl]sulfonyl}amino)-N-hydroxy-2-(4-hydroxyphenyl)acetamide], the IC50 is 0.103 µM at MMP-13, 0.004 µM in assay [1], about 10 µM at MMP-1 and 0.898 µM on MMP-9.
Taken in the same sequence, the figures for `C#CCOc1ccc(C(NS(=O)(=O)c2ccc(OCC#CC)cc2)C(=O)NO)cc1` (stereo not shown) [Example 177, 2-({[4-(2-Butynyloxy)phenyl]sulfonyl}amino)-N-hydroxy-2-[4(2-propynyloxy)phenyl]acetamide] were 0.057 µM, 0.0048 µM, under 10 µM and 0.31 µM.
With `CC#CCOc1ccc(S(=O)(=O)N(C)C(C(=O)NO)c2ccc(OC)cc2)cc1` (stereo not shown) [Example 178, 2-[{[4-(2-Butynyloxy)phenyl]sulfonyl}(methyl)amino]-N-hydroxy-2-(4-methoxyphenyl)acetamide], the IC50 at MMP-13 is 0.014 µM; in assay [1] it was 0.023 µM; on MMP-1 it was 0.482 µM; on MMP-9, 0.043 µM.
Turning to `CC#CCOc1ccc(S(=O)(=O)N(C)C(C(=O)NO)c2ccc(OCCN3CCOCC3)cc2)cc1` (stereo not shown) [Example 179, 2-[{[4-(2-Butynyloxy)phenyl]sulfonyl}(methyl)amino]-N-hydroxy-2-{4-[2-(4-morpholinyl)ethoxy]phenyl}acetamide], the IC50 on MMP-13 is 0.011 µM; in assay [1], 0.052 µM; on MMP-1, 0.546 µM; at MMP-9, 0.029 µM.
Taken in the same sequence, the figures for `CC#CCOc1ccc(S(=O)(=O)N(C)C(C(=O)NO)c2ccc(OCCNC(=O)OC(C)(C)C)cc2)cc1` (stereo not shown) [Example 180, tert-Butyl 2-(4-[1-[{[4-(2-Butynyloxy)phenyl]sulfonyl}(methyl)amino]-2-(hydroxyamino)-2-oxoethyl]phenoxy}ethylcarbamate] were 0.0093 µM, 0.265 µM, 0.599 µM and 0.034 µM.
For the compound `CC#CCOc1ccc(S(=O)(=O)N(C)C(C(=O)NO)c2ccc(OCCN)cc2)cc1` (stereo not shown) [Example 181, 2-[4-(2-Aminoethoxy)phenyl]-2-[{[4-(2-butynyloxy)phenyl]sulfonyl}(methyl)amino]-N-hydroxyacetamide], the IC50 was found to be 0.024 µM on MMP-13, 0.016 µM in assay [1], 0.645 µM at MMP-1 and 0.026 µM at MMP-9.
Turning to `CC#CCOc1ccc(S(=O)(=O)N(C)C(C(=O)NO)c2ccc(OCCN(C)C)cc2)cc1` (stereo not shown) [Example 182, 2-[{[4-(2-Butynyloxy)phenyl]sulfonyl}(methyl)amino]-2-{4-[2-(dimethylamino)ethoxy]phenyl}-N-hydroxyacetamide], the IC50 at MMP-13 came out at 0.015 µM; in assay [1], 0.016 µM; on MMP-1, 0.487 µM; on MMP-9 it was 0.022 µM.
`CC#CCOc1ccc(S(=O)(=O)N(C)C(C(=O)NO)c2ccc(OCCN3CCCC3)cc2)cc1` (stereo not shown) [Example 183, 2-[{[4-(2-Butynyloxy)phenyl]sulfonyl}(methyl)amino]-N-hydroxy-2-{4-[2-(1-pyrrolidinyl)ethoxy]phenyl}acetamide]: the IC50 on MMP-13 amounted to 0.042 µM; in assay [1], 0.04 µM; on MMP-1, 0.497 µM; on MMP-9 it was 0.055 µM.
In the same order, the values of `CC#CCOc1ccc(S(=O)(=O)N(C)C(C(=O)NO)c2ccc(OCCN3CCCC3=O)cc2)cc1` (stereo not shown) [Example 184, 2-[{[4-(2-Butynyloxy)phenyl]sulfonyl}(methyl)amino]-N-hydroxy-2-{4-[2-(2-oxo-1-pyrrolidinyl)ethoxy]phenyl}acetamide] are 0.011 µM, 0.035 µM, 0.434 µM and 0.055 µM.
For `CC#CCOc1ccc(S(=O)(=O)N(C)C(C(=O)NO)c2ccc(OCCN3CCN(C(=O)OC(C)(C)C)CC3)cc2)cc1` (stereo not shown) [Example 185, tert-Butyl 4-(2-{4-[1-[{[4-(2-Butynyloxy)phenyl]sulfonyl}(methyl)amino]-2-(hydroxyamino)-2-oxoethyl]phenoxy}ethyl)-1-piperazinecarboxylate], the IC50 on MMP-13 was determined as 0.027 µM; in assay [1] it was 0.309 µM; at MMP-1 it was 0.839 µM; on MMP-9 it was 0.053 µM.
In the same order, the values of `CC#CCOc1ccc(S(=O)(=O)N(C)C(C(=O)NO)c2ccc(OCCN3CCNCC3)cc2)cc1` (stereo not shown) [Example 186, 2-[{[4-(2-butynyloxy)phenyl]sulfonyl}(methyl)amino]-N-hydroxy-2-{4-[2-(1-piperazinyl)ethoxy]phenyl}acetamide] are 0.021 µM, 0.031 µM, 0.568 µM and 0.032 µM.
On to `CC#CCOc1ccc(S(=O)(=O)N(C)C(C(=O)NO)c2ccc(OCCCNC(=O)OC(C)(C)C)cc2)cc1` (stereo not shown) [Example 187, tert-Butyl 3-{4-[1-[{[4-(2-Butynyloxy)phenyl]sulfonyl}(methyl)amino]-2-(hydroxyamino)-2-oxoethyl]phenoxy}propylcarbamate], for which the IC50 on MMP-13 was 0.013 µM; in assay [1] it was 0.199 µM; at MMP-1, 0.91 µM; on MMP-9 it was 0.046 µM.
Consider `CC#CCOc1ccc(S(=O)(=O)N(C)C(C(=O)NO)c2ccc(OCCCN)cc2)cc1` (stereo not shown) [Example 188, 2-[4-(3-Aminopropoxy)phenyl]-2-[{[4-(2-butynyloxy)phenyl]sulfonyl}(methyl)amino]-N-hydroxyacetamide], for which the IC50 on MMP-13 turned out to be 0.041 µM; in assay [1], 0.025 µM; on MMP-1, 0.469 µM; on MMP-9, 0.048 µM.
On to `CC#CCOc1ccc(S(=O)(=O)N(C)[C@@H](C(=O)NO)c2ccc(O[C@H]3CCN(C(=O)OC(C)(C)C)C3)cc2)cc1` [Example 189, tert-Butyl(3S)-3-{4-[(1R)-1-[{[4-(2-butynyloxy)phenyl]sulfonyl}(methyl)amino]-2-(hydroxyamino)-2-oxoethyl]phenoxy}-1-pyrrolidinecarboxylate], for which the IC50 at MMP-13 amounted to 0.12 µM; in assay [1] it was 0.231 µM; on MMP-1, 2.44 µM; at MMP-9, 0.297 µM.
In the same order, the values of `CC#CCOc1ccc(S(=O)(=O)N(C)[C@@H](C(=O)NO)c2ccc(O[C@H]3CCNC3)cc2)cc1` [Example 190, (2R)-2-[{[4-(2-Butynyloxy)phenyl]sulfonyl}(methyl)amino]-N-hydroxy-2-{4-[(3S)-pyrrolidinyloxy]phenyl}ethanamide] are 0.029 µM, 0.032 µM, 0.527 µM and 0.037 µM.

The values are drawn from patent publication US6716833B2, “Acetylenic α-amino acid-based sulfonamide hydroxamic acid tace inhibitors” (priority 1999, dated 2004).
